# Laboratory results taken from patent publication US20010006673A1, “LUTEIN- CONTAINING SUPPLEMENT AND PROCESS FOR ENHANCING IMMUNE RESPONSE IN ANIMALS” (priority 1998, published 2001).
# Legend:
# [1] = system: peripheral blood mononuclear cells (PBMC); experiment: Mitogen-induced lymphocyte proliferation by PBMC, whole blood culture, dogs; assay type: in vivo, Beagle dogs
# Procedure: Blood collected on weeks 0, 2, 4, 8 and 12 were used to assess mitogen-induced lymphocyte proliferation by peripheral blood mononuclear cells (PBMC). Whole blood culture was used in order to mimic in vivo conditions. Mitogens used were phytohemagglutinin (PHA), concanavalin A (Con A) and pokeweed mitogen (PWM). Whole blood was thoroughly mixed and then diluted 1:12 with RPMI-1640 containing 25 mM of Hepes, penicillin (100 U/mL) and streptomycin (100 μg/mL) (Sigma, St. Louis, Mo.). […] Triplicate 150 μL volumes were pipetted into 96-well round bottom plates and 50 μl of the appropriate mitogens added. The final concentrations of the mitogens in culture were 2 and 10 μg/mL for PHA, 1 and 5 μg/mL for Con A and 0.5 and 2.5 μg/mL for PWM. The two mitogen concentrations gave maximum (the higher mitogen concentration) and suboptimal (lower mitogen concentration) proliferative responses in preliminary studies using blood from similar animals. The mixture was incubated for 72 h at 37° C. in a humidified incubator under a 5% CO2 atmosphere. Four hours prior to the termination of the incubation period, 20 μL of [^3H]-thymidine (1 [μCi/well) were added. Cells were harvested onto fiberglass filters and radioactivity was counted by liquid scintillation. Proliferation response of PBMC was expressed as stimulation index (cpm of stimulated cultures/cpm of unstimulated cultures).
# [2] = Body weight and food intake of cats fed lutein; assay type: in vivo, Tabby cats
# Procedure: Fifty-six female Tabby cats (10 months old) were randomly assigned to be fed 0, 1, 5, or 10 mg lutein daily for 12 weeks. The lutein contained 76.66% lutein and 5.23% zeaxanthin and was incorporated into the basal diet (see Table 3) to a final concentration of 250 mg lutein/kg of diet.
# Prior to being fed to the cats, the lutein-containing diet was mixed with additional basal diet to achieve the desired lutein concentration. The final diets were mixed weekly and stored at −20° C. in sealed containers undernitrogen gas. […] Food and water were available ad libitum. Cats were housed (7 cats/pen; 1.5×5.0 m) in a temperature (20 to 22° C.) and light (14 h light) controlled facility.
# [3] = system: transplantable murine mammary tumor cell line; conditions: mice, dietary lutein; cited from earlier work
# dogs = experiment: Delayed type hypersensitivity (skin induration) response in dogs; assay type: in vivo, Beagle dogs; conditions: for DTH response to PHA / DTH response to vaccine: dogs
# Procedure: Skin induration response was assessed in all dogs on weeks 0, 6, and 12. Dogs were injected intradermally in the flank area with saline (8.5 g/L; control), an attenuated polyvalent vaccine containing canine distemper virus, canine adenovirus type-2, canine parainfluenza virus and parvovirus (Vanguard 5, Smithkline Beacham, West Chester, Pa.; specific antigen), and PHA (0.5 g/L; nonspecific antigen). The doses of vaccine and PHA used were previously determined to provide optimal skin response in Beagle dogs of similar age. The injection site was clipped and wiped with 70% ethyl alcohol. The injection volume was 100 μL. Skin induration was measured at 0, 24, 48 and 72 h post-injection with the aid of a pressure-sensitive digital micrometer (Mitsutoyo, Tokyo, Japan) and response was expressed as a percentage of skin thickness measured at 0 h.
# malondialdehyde = experiment: Lipid peroxidation (TBARS), cat plasma; assay type: in vivo, Tabby cats; conditions: cats
# Procedure: Lipid peroxidation was assessed by the TBARS (thiobarbituric acid-reactive substances) assay on plasma collected on weeks 0, 2, 4, 8 and 12. Duplicate 500 μL of cat plasma was boiled for 45 minutes with 3 mL of phosphoric acid (10 g/L) and 1 mL of TBA (6 g/L). After cooling, the TBA-MDA (malondialdehyde) complex was extracted with 4 mL of n-butanol. The butanol layer was separated by centrifugation (1,000×g for 10 minutes) and absorbance read (Beckman, Fullerton, Calif.) at 532 nm. […] Louis, Mo.).
# cats = experiment: Delayed type hypersensitivity (DTH) response in cats; assay type: in vivo, Tabby cats; conditions: for DTH response to vaccine: week 6, 72 h post-injection
# [4] = system: malondialdehyde (MDA) production; experiment: Lipid peroxidation (TBARS) assay, dog plasma; assay type: in vivo, Beagle dogs; conditions: dogs
# Procedure: Plasma lipid peroxidation activity was determined by measuring malondialdehyde (MDA) production. The standard used was 1,1,3,3-tetramethoxypropane JMP) (Sigma Chem. Co., St. Louis, Mo.). Duplicate 500 μL plasma samples were pipetted into 15 ml, glass tubes and 3 mL of 10 g/L phosphoric acid and 1 ml of 6 g/L TBA solution were added. The mixture was boiled in a water bath for 45 minutes. Tubes were allowed to cool and the TBA-MDA complex was extracted with 4 ml of n-butanol. The butanol layer was separated by centrifugation at 1,000×g for 10 minutes and absorbance was measured on at 532 nm (Beckman, Fullerton, Calif.). The TBARS activity was expressed in nmole MDA/L plasma.
# IL-2 = IL-2 production by PHA-stimulated whole blood cultures, dogs; assay type: in vivo, Beagle dogs
# Procedure: Whole blood was diluted 1:2 with RPMI-1640 supplemented with Hepes and antibiotics (described earlier) and 400 μL of diluted blood were pipetted into 48-well plates (Costar, Cambridge, Mass.). Cells were stimulated with PHA (400 μL of a 5 μg/mL solution) for 48 hours at […] in a 5% CO2 atmosphere. The plates were centrifuged at 200×g for 10 minutes and the supernatant was frozen at −80° C. The IL-2 content of the culture supernatant was determined in triplicate by ELISA (Intergen, Purchase, N.Y.). The polyclonal anti-human IL-2 cross-reacted with canine IL-2 and recombinant human IL-2 was used as the standard.
smiles,measurement,setting,value
CC1=C[C@H](O)CC(C)(C)[C@H]1/C=C/C(C)=C/C=C/C(C)=C/C=C/C=C(C)/C=C/C=C(C)/C=C/C1=C(C)C[C@@H](O)CC1(C)C [lutein],Spontaneous proliferation by unstimulated PBMC,[1]; dogs,did not significantly influence
same,PWM-stimulated PBMC proliferative response,"[1]; dogs fed 10 mg lutein, week 8",higher
same,Con A-stimulated PBMC proliferation,"[1]; dogs fed 10 mg lutein, weeks 8 and 12, 5 μg/mL Con A",higher
same,PHA-stimulated PBMC proliferative response vs unsupplemented,"[1]; dogs fed 20 mg lutein, week 8, P<0.01",enhanced
same,PWM-stimulated PBMC proliferation vs unsupplemented controls,"[1]; dogs fed 20 mg lutein, week 8 and 12, both concentrations of PWM",significantly higher
same,PHA-stimulated PBMC proliferative response vs unsupplemented,"[1]; dogs fed 20 mg lutein, week 12, 2 and 10 μg/mL PHA, P<0.01",enhanced
same,Con A-stimulated PBMC proliferation,"[1]; dogs fed 20 mg lutein, weeks 8 and 12, both concentrations of Con A",higher
same,PHA-stimulated PBMC proliferation,"[1]; dogs fed 5 and 10 mg lutein, week 8, 10 μg/ml PHA",higher
same,PHA-stimulated PBMC response,"[1]; dogs, weeks 0 and 4",no significant effect
same,PWM-stimulated PBMC proliferation,"[1]; dogs, weeks 0 and 4",no significant treatment difference
same,Food intake among treatments,[2],not significantly different
same,Body weight average,[2]; across all diets and periods,1.41 ± 0.04 kg
same,Average daily food intake,[2]; across the study period,83.2 g
same,Effect on changes in body weight,[2]; during the experimental period,did not significantly affect
same,Mammary tumor incidence,[3],decreases
same,Tumor growth,[3],decreases
same,Tumor latency,[3],shortened
same,DTH response to PHA vs unsupplemented dogs,"dogs; dogs fed 20 mg lutein, week 12",significantly higher
same,DTH response to PHA,"dogs; week 6, 48 and 72 h",no significant treatment difference
same,DTH response to vaccine,"dogs; week 6, 48 and 72 h post-injection",dose-related
same,DTH response to vaccine,"dogs; week 6, 24 h",not significant
same,DTH response to PHA,"dogs; week 6, 24 h post-injection",dose-related
same,DTH response to vaccine,dogs; week 12,no significant dietary effect
same,DTH response to PHA,"dogs; week 12, 24, 48 and 72 h, all doses",general dose-dependent increase
same,Effect on plasma TBARS activity,malondialdehyde,did not significantly influence
same,"Plasma TBARS, average",malondialdehyde; across all diet groups and periods,20.3±0.2 nmol MDA/L
same,DTH response to vaccine,cats; cats fed 5 or 10 mg lutein,significantly higher
same,DTH response to Con A,"cats; cats, week 6",no significant dietary effect
same,DTH response to vaccine,"cats; cats, all doses",significant dose-related
same,DTH response to Con A and vaccine,"cats; cats, week 12",no significant treatment difference
same,Effect on plasma TBARS activity,[4],did not significantly affect
same,"Plasma TBARS activity, average",[4]; across all treatments and periods,95.8±0.1 nmol MDA/L
same,Production of IL-2 by PHA-stimulated PBMC among dietary treatments,IL-2; throughout the experimental period,did not differ significantly
same,"Concentration of IL-2 in culture medium, average",IL-2; throughout the study,15.7 ± 0.4 ng/mL
